Assay results published in the supplement of paper PMC10307832.

Compound: Cc1ccc2nc(NCCN)c3ncc(C)n3c2c1 + Nc1nc2[nH]cc(CCc3ccc(C(=O)N[C@@H](CCC(=O)O)C(=O)O)cc3)c2c(=O)[nH]1 [Pemetrexed] (partner 0.2 µM)
Assay: relative viability (nuclei count vs DMSO), 5 days (fraction); higher = more cells survive
Settings: first compound 0.04 µM
Procedure, shortened: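 Lung cancer cell lines in 1536-well plates got either a single drug or a fixed anchor-drug dose together with five library-drug doses (not always all listed) in √10 steps, by pin tool, on the day after seeding. Nuclei were counted after 5 days, and relative viability is the treated-to-vehicle ratio of nuclei counts. Values are medians of duplicate plates.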

| Cell Line | relative viability |
| --- | --- |
| LU99A | 0.165 |
| BEN | 0.978 |
| HARA | 0.217 |
| HCC-78 | 0.935 |
| NCI-H322M | 0.654 |
| LCLC-97TM1 | 0.171 |
| NCI-H2009 | 1.02 |
| A-427 | 0.979 |
| NCI-H441 | 0.301 |
| NCI-H661 | 0.909 |
| NCI-H1734 | 0.438 |
| NCI-H460 | 0.0612 |
| NCI-H2347 | 0.447 |
| SK-LU-1 | 0.979 |
| 201T | 0.372 |
| NCI-H1915 | 0.511 |
| HCC-827 | 0.261 |
| LXF-289 | 0.905 |
| NCI-H23 | 0.666 |
| NCI-H647 | 0.179 |
| CAL-12T | 1.42 |
| NCI-H1651 | 0.578 |
| EPLC-272H | 0.278 |
| NCI-H2228 | 0.316 |
| NCI-H1355 | 1.05 |
| NCI-H3122 | 0.199 |

Same assay, conditions: first compound 0.1265 µM

| Cell Line | relative viability |
| --- | --- |
| HOP-62 | 0.303 |
| LU99A | 0.209 |
| BEN | 0.894 |
| HARA | 0.237 |
| HCC-78 | 0.791 |
| NCI-H322M | 0.621 |
| LCLC-97TM1 | 0.178 |
| NCI-H2009 | 0.985 |
| A-427 | 0.939 |
| NCI-H441 | 0.288 |
| NCI-H661 | 0.949 |
| NCI-H1734 | 0.395 |
| NCI-H460 | 0.0659 |
| NCI-H2347 | 0.479 |
| SK-LU-1 | 0.903 |
| 201T | 0.321 |
| NCI-H1915 | 0.502 |
| HCC-827 | 0.242 |
| LXF-289 | 0.876 |
| NCI-H23 | 0.691 |
| NCI-H647 | 0.158 |
| CAL-12T | 1.13 |
| NCI-H1651 | 0.639 |
| EPLC-272H | 0.358 |
| NCI-H2228 | 0.292 |
| NCI-H1355 | 1.16 |
| NCI-H3122 | 0.192 |

Same assay, conditions: first compound 0.4 µM

| Cell Line | relative viability |
| --- | --- |
| HOP-62 | 0.348 |
| LU99A | 0.208 |
| BEN | 0.817 |
| HARA | 0.226 |
| HCC-78 | 0.904 |
| NCI-H322M | 0.62 |
| LCLC-97TM1 | 0.211 |
| NCI-H2009 | 0.966 |
| A-427 | 1.02 |
| NCI-H441 | 0.269 |
| NCI-H661 | 0.958 |
| NCI-H1734 | 0.413 |
| NCI-H460 | 0.065 |
| NCI-H2347 | 0.454 |
| SK-LU-1 | 0.955 |
| 201T | 0.323 |
| NCI-H1915 | 0.463 |
| HCC-827 | 0.273 |
| LXF-289 | 0.87 |
| NCI-H23 | 0.741 |
| NCI-H647 | 0.243 |
| CAL-12T | 1.15 |
| NCI-H1651 | 0.647 |
| EPLC-272H | 0.488 |
| NCI-H2228 | 0.357 |
| NCI-H1355 | 0.987 |
| NCI-H3122 | 0.192 |

Same assay, conditions: first compound 1.265 µM

| Cell Line | relative viability |
| --- | --- |
| HOP-62 | 0.352 |
| LU99A | 0.188 |
| BEN | 0.712 |
| HARA | 0.236 |
| HCC-78 | 0.839 |
| NCI-H322M | 0.634 |
| LCLC-97TM1 | 0.175 |
| NCI-H2009 | 0.951 |
| A-427 | 0.95 |
| NCI-H441 | 0.268 |
| NCI-H661 | 0.891 |
| NCI-H1734 | 0.48 |
| NCI-H460 | 0.0654 |
| NCI-H2347 | 0.412 |
| SK-LU-1 | 0.984 |
| 201T | 0.276 |
| NCI-H1915 | 0.519 |
| HCC-827 | 0.24 |
| LXF-289 | 0.865 |
| NCI-H23 | 0.641 |
| NCI-H647 | 0.221 |
| CAL-12T | 1.04 |
| NCI-H1651 | 0.591 |
| EPLC-272H | 0.281 |
| NCI-H2228 | 0.361 |
| NCI-H1355 | 1.03 |
| NCI-H3122 | 0.218 |

Same assay, conditions: first compound 4 µM

| Cell Line | relative viability |
| --- | --- |
| HOP-62 | 0.339 |
| LU99A | 0.209 |
| BEN | 0.801 |
| HARA | 0.234 |
| HCC-78 | 0.922 |
| NCI-H322M | 0.647 |
| LCLC-97TM1 | 0.145 |
| NCI-H2009 | 0.926 |
| A-427 | 0.948 |
| NCI-H441 | 0.261 |
| NCI-H661 | 0.868 |
| NCI-H1734 | 0.496 |
| NCI-H460 | 0.0753 |
| NCI-H2347 | 0.424 |
| SK-LU-1 | 0.981 |
| 201T | 0.343 |
| NCI-H1915 | 0.442 |
| HCC-827 | 0.266 |
| LXF-289 | 0.933 |
| NCI-H23 | 0.581 |
| NCI-H647 | 0.243 |
| CAL-12T | 1.03 |
| NCI-H1651 | 0.502 |
| EPLC-272H | 0.414 |
| NCI-H2228 | 0.419 |
| NCI-H1355 | 0.971 |
| NCI-H3122 | 0.2 |
